Source: patent publication US11214561B2, “Histone methyltransferase EZH2 inhibitor, preparation method and pharmaceutical use thereof” (ANCUREALL PHARMACEUTICAL (SHANGHAI) CO., LTD., priority 2017, dated 2022)

What was measured:
[1] = test system: SU-DHL-8 (EZH2 WT); assay: In vitro 50% growth inhibition (GI50), MTT/CCK8, SU-DHL-8 cells; assay type: cell-based; details: Homo sapiens, SU-DHL-8, 144 h; Drug treatment for 6 days
Excerpt: (§1) In the present invention, a representative tumor cell line was selected to determine the cell growth inhibition activity of the present compound. Cell culture conditions and methods were in accordance with the requirements for each cell lines. The cells were subcultured in vitro for less than 3 generations each time, and as required, monoclone purification and identification of cell lines could be carried out.
(§2) The cell culture media used were RPMI1640 (Gibco) comprising 5-20% of fetal bovine serum (Gibco), 1% of double-antibiotic and 2 mM of glutamine.
(§3) Suspension culture cells were collected by centrifugation (1700 rpm, 3 minutes), and the supernatant was discarded and the cells were counted. According to each cell growth cycle, different concentrations of cells were prepared (1-10×10^4 cells per ml) and added to 96-well plates (Corning) with 100 μl per well, and then incubated overnight at 37° C., 5% CO2. The next day, the test compound was added to the cultured cells (2 wells in parallel). The final concentration of the solvent was less than 1/1,000. The cells were further cultured for 6 to 12 days and assayed by MTT.
(§4) The compound was stored at a concentration of 10 mM at −20° C. and diluted to two-fold or 10-fold series prior to use.
(§5) For the suspension culture cells, CCK8 was directly added to 10% of the final concentration. The cells were continually incubated for […].
(§6) The experiments were repeated 3 times and a statistical analysis of data was conducted.

[2] = test system: Karpas-422 (EZH2 Y641N); assay: In vitro 50% growth inhibition (GI50), MTT/CCK8, Karpas-422 cells; assay type: cell-based; details: Homo sapiens, KARPAS-422, 144 h; Drug treatment for 6 days
Excerpt: as §1, §2, §3, §4, §5, §6

[3] = test system: Pfeiffer (EZH2 A677G); assay: In vitro 50% growth inhibition (GI50), MTT/CCK8, Pfeiffer cells; assay type: cell-based, Human; details: Homo sapiens, Pfeiffer, 240 h; Drug treatment for 10 days
Excerpt: as §1, §2, §3, §4, §5, §6

SMILES	GI50 [1] [nM]	GI50 [2] [nM]	GI50 [3] [nM]
C=CC(=O)N1CCC(N(CC)c2cc(OC)cc(C(=O)NCc3c(C)cc(C)[nH]c3=O)c2C)C1 (stereo not drawn) [Example 16, 3-[(1-acryloyl-pyrrolidin-3-yl)-ethyl-amino]-5-methoxy-N-(4,6-dimethyl-2-oxo-1,2-dihydrogen-pyridin-3-ylmethyl)-2methyl-benzamide]	> 1000	100 to 1000	10 to 100
C=CC(=O)N1CCC(N(CC)c2cc(-c3ccc(CN4CCCCC4)cc3)cc(C(=O)NCc3c(C)cc(C)[nH]c3=O)c2C)C1 (stereo not drawn) [Example 18, N-(4,6-dimethyl-2-oxo-1,2-dihydro-pyridin-3-ylmethyl)-5-[(1-acryloyl-pyrrolidin-3-yl)-ethyl-amino]-4′-(piperidin-1-ylmethyl)-4-methyl-biphenyl-3-carboxamide]	> 1000	10 to 100	1 to 10
C=CC(=O)N1CCC(N(CC)c2cc(-c3ccc(CN(C)C)cc3)cc(C(=O)NCc3c(C)cc(C)[nH]c3=O)c2C)C1 (stereo not drawn) [Example 19, N-(4,6-dimethyl-2-oxo-1,2-dihydro-pyridin-3-ylmethyl)-5-[(1-acryloyl-pyrrolidin-3-yl)-ethyl-amino]-4′-(dimethylaminomethyl)-4-methyl-biphenyl-3-carboxamide]	> 1000	100 to 1000	10 to 100
C=CC(=O)N1CCC(N(CC)c2cc(-c3ccc(CN4CCOCC4)cc3)cc(C(=O)NCc3c(C)cc(C)[nH]c3=O)c2C)C1 (stereo not drawn) [Example 20, N-(4,6-dimethyl-2-oxo-1,2-dihydro-pyridin-3-ylmethyl)-5-[(1-acryloyl-pyrrolidin-3-yl)-ethyl-amino]-4′-(morpholin-4-ylmethyl)-4-methyl-biphenyl-3-carboxamide]	> 1000	100 to 1000	1 to 10
C=CC(=O)N1CCC(N(CC)c2cc(-c3ccc(CN4CCOCC4)c(Cl)c3)cc(C(=O)NCc3c(C)cc(C)[nH]c3=O)c2C)C1 (stereo not drawn) [Example 21, N-(4,6-dimethyl-2-oxo-1,2-dihydro-pyridin-3-ylmethyl)-5-[(1-acryloyl-pyrrolidin-3-yl)-ethyl-amino]-3′-chloro-4′-(morpholin-4-ylmethyl)-4-methyl-biphenyl-3-carboxamide]	> 1000	100 to 1000	1 to 10
C=CC(=O)N1CCC(N(CC)c2cc(-c3ccc(CN4CCOCC4)c(F)c3)cc(C(=O)NCc3c(C)cc(C)[nH]c3=O)c2C)C1 (stereo not drawn) [Example 23, N-(4,6-dimethyl-2-oxo-1,2-dihydro-pyridin-3-ylmethyl)-5-[(1-acryloyl-pyrrolidin-3-yl)-ethyl-amino]-3′-fluoro-4′-(morpholin-4-ylmethyl)-4-methyl-biphenyl-3-carboxamide]	> 1000	10 to 100	1 to 10
C=CC(=O)N1CCC(N(CC)c2cc(-c3ccc(N4CCOCC4)cc3)cc(C(=O)NCc3c(C)cc(C)[nH]c3=O)c2C)C1 (stereo not drawn) [Example 24, N-(4,6-dimethyl-2-oxo-1,2-dihydro-pyridin-3-ylmethyl)-5-[(1-acryloyl-pyrrolidin-3-yl)-ethyl-amino]-4′-(morpholin-4-yl)-4-methyl-biphenyl-3-carboxamide]	> 1000	100 to 1000	1 to 10
C=CC(=O)N1CCC(N(CC)c2cc(-c3cccc(CN4CCOCC4)c3)cc(C(=O)NCc3c(C)cc(C)[nH]c3=O)c2C)C1 (stereo not drawn) [Example 30, N-(4,6-dimethyl-2-oxo-1,2-dihydro-pyridin-3-ylmethyl)-5-[(1-acryloyl-pyrrolidin-3-yl)-ethyl-amino]-4-methyl-3′-(morpholin-4-yl)-methyl-[1,1′-biphenyl]-3-carboxamide]	> 1000	10 to 100	1 to 10
C=CC(=O)N1CCC(N(CC)c2cc(-c3cccc(CN4CCCCC4)c3)cc(C(=O)NCc3c(C)cc(C)[nH]c3=O)c2C)C1 (stereo not drawn) [Example 31, N-(4,6-dimethyl-2-oxo-1,2-dihydro-pyridin-3-ylmethyl)-5-[(1-acryloyl-pyrrolidin-3-yl)-ethyl-amino]-4-methyl-3′-(piperidin-1-ylmethyl)-[1,1′-biphenyl]-3-carboxamide]	> 1000	10 to 100	1 to 10
C=CC(=O)N1CCC(N(CC)c2cc(-c3ccc(OCCN4CCOCC4)cc3)cc(C(=O)NCc3c(C)cc(C)[nH]c3=O)c2C)C1 (stereo not drawn) [Example 48, N-(4,6-dimethyl-2-oxo-1,2-dihydro-pyridin-3-ylmethyl)-5-[(1-acryloyl-pyrrolidin-3-yl)-ethyl-amino]-4-methyl-4′-[2-(morpholin-4-yl)-ethoxy]-[1,1′-biphenyl]-3-carboxamide]	> 1000	100 to 1000	10 to 100
C=CC(=O)N1CCC(N(CC)c2cc(C#CCN3CCOCC3)cc(C(=O)NCc3c(C)cc(C)[nH]c3=O)c2C)C1 (stereo not drawn) [Example 51, N-(4,6-dimethyl-2-oxo-1,2-dihydro-pyridin-3-ylmethyl)-3-[(1-acryloyl-pyrrolidin-3-yl)-ethyl-amino]-2-methyl-5-[3-(morpholin-4-yl)-propyn-1-yl]-benzamide]	> 1000	10 to 100	1 to 10

Now from value to compound, other results behind:

GI50 [1] [nM]	GI50 [2] [nM]	SMILES	GI50 [3] [nM]
> 1000	10 to 100	C=CC(=O)N1CCC(N(CC)c2cc(Br)cc(C(=O)NCc3c(C)cc(C)[nH]c3=O)c2C)C1 (stereo not drawn) [Example 1, 3-[(1-acryloyl-pyrrolidin-3-yl)-ethyl-amino]-5-bromo-N-(4,6-dimethyl-2-oxo-1,2-dihydro-pyridin-3-ylmethyl)-2-methyl-benzamide]	1 to 10
> 1000	10 to 100	C=CC(=O)N1CCC(N(CC)c2cc(F)cc(C(=O)NCc3c(C)cc(C)[nH]c3=O)c2C)C1 (stereo not drawn) [Example 2, 3-[(1-acryloyl-pyrrolidin-3-yl)-ethyl-amino]-5-fluoro-N-(4,6-dimethyl-2-oxo-1,2-dihydro-pyridin-3-ylmethyl)-2-methyl-benzamide]	10 to 100
> 1000	10 to 100	C=CC(=O)N1CCC(N(CC)c2cc(Cl)cc(C(=O)NCc3c(C)cc(C)[nH]c3=O)c2C)C1 (stereo not drawn) [Example 3, 3-[(1-acryloyl-pyrrolidin-3-yl)-ethyl-amino]-5-chloro-N-(4,6-dimethyl-2-oxo-1,2-dihydro-pyridin-3-ylmethyl)-2-methyl-benzamide]	1 to 10
> 1000	10 to 100	C=CC(=O)N1CCC(N(CC)c2cc(Br)cc(C(=O)NCc3c(C)cc(C)[nH]c3=O)c2C)CC1 [Example 6, 3-[(1-acryloyl-piperidin-4-yl)-ethyl-amino]-5-bromo-N-(4,6-dimethyl-2-oxo-1,2-dihydro-pyridin-3-ylmethyl)-2-methyl-benzamide]	1 to 10
> 1000	> 1000	C=CC(=O)N1CCC(N(CCCC)c2cc(Br)cc(C(=O)NCc3c(C)cc(C)[nH]c3=O)c2C)C1 (stereo not drawn) [Example 9, 3-[(1-acryloyl-pyrrolidin-3-yl)-butyl-amino]-5-bromo-N-(4,6-dimethyl-2-oxo-1,2-dihydro-pyridin-3-ylmethyl)-2methyl-benzamide]	10 to 100
> 1000	> 1000	C=CC(=O)N1CCC(N(C)c2cc(Br)cc(C(=O)NCc3c(C)cc(C)[nH]c3=O)c2C)C1 (stereo not drawn) [Example 10, 3-[(1-acryloyl-pyrrolidin-3-yl)-methyl-amino]-5-bromo-N-(4,6-dimethyl-2-oxo-1,2-dihydro-pyridin-3-ylmethyl)-2methyl-benzamide]	10 to 100
> 1000	10 to 100	CC#CC(=O)N1CCC(N(CC)c2cc(Br)cc(C(=O)NCc3c(C)cc(C)[nH]c3=O)c2C)C1 (stereo not drawn) [Example 15]	1 to 10
